Laboratory results reported in the NIST ThermoML archive (doi:10.1021/acs.jced.6b00888).
± gives the expanded uncertainty stated by the source.

Conditions: 101.3 kPa, Liquid, Vibrating tube method

CN(C)CCO [2-(N,N-dimethylamino)ethanol]
mass density (293.15 K): 888.2 ± 5.2 kg/m3
mass density (298.15 K): 884 ± 5.2 kg/m3
mass density (303.15 K): 879.8 ± 5.2 kg/m3
mass density (308.15 K): 875.5 ± 5.2 kg/m3
mass density (313.15 K): 871.2 ± 5.2 kg/m3
mass density (318.15 K): 866.8 ± 5.2 kg/m3
mass density (323.15 K): 862.4 ± 5.2 kg/m3
mass density (328.15 K): 858 ± 5.2 kg/m3
mass density (333.15 K): 853.5 ± 5.2 kg/m3
mass density (338.15 K): 849 ± 5.2 kg/m3
mass density (343.15 K): 844.4 ± 5.2 kg/m3
